According to patent US12319655B2, “RAF kinase inhibitors and methods of use thereof” (Deciphera Pharmaceuticals, LLC, priority 2021, dated 2025):

Key:
[1] = molecular target: B-Raf (V600E) (SEQ. ID NO: 4) kinase (Homo sapiens (Human), UniProt P15056, V600E); assay: Biochemical Assay for B-Raf (V600E) (1); conditions: Table J, BRAF V600E, assay version (1); read-out: BRAF VE (1) IC50
Procedure, shortened: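 Serially diluted compounds tested against 0.03 nM enzyme with 30.1 nM MEK substrate and 1 mM ATP (Tris pH 7.5, 15 mM MgCl2), ATP use coupled to NADH loss via PK/LDH. A340 monitored continuously 6 h, 30 °C; IC50 fitted (four-parameter) from the 3–4 h rate versus no-compound and known-inhibitor controls.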

WM3928 cells = assay: WM3928 Cell Proliferation Assay (1); assay type: cell-based
Procedure, shortened: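 IC50 was derived from resazurin fluorescence (ex 540, em 600 nm) after a 6–7 h dye incubation. Before that, cells had 67–72 h of compound exposure at 37 °C, 5% CO2.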

H2405 cells = assay: H2405 Cell Proliferation Assay (1); assay type: cell-based; conditions: Homo sapiens, NCI-H2405
Procedure, shortened: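 Viability was read by resazurin reduction (ex 540 nm, em 600 nm; 5-6 h with 40 μL of 440 μM stock) after 67-72 h compound exposure at 37 °C.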

Miapaca-2 cells = assay: MiaPaca-2 Cell Proliferation Assay (1); assay type: cell-based; conditions: Homo sapiens, MIA PaCa-2, single agent, read-out: MiaPaca2 (1) IC50
Procedure, shortened: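 Resazurin was added after compound exposure and incubated 5-6 h, then fluorescence read at 540 nm excitation and 600 nm emission to give IC50.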

Sequence of B-Raf (V600E) (SEQ. ID NO: 4) kinase (P15056 416-766 V600E): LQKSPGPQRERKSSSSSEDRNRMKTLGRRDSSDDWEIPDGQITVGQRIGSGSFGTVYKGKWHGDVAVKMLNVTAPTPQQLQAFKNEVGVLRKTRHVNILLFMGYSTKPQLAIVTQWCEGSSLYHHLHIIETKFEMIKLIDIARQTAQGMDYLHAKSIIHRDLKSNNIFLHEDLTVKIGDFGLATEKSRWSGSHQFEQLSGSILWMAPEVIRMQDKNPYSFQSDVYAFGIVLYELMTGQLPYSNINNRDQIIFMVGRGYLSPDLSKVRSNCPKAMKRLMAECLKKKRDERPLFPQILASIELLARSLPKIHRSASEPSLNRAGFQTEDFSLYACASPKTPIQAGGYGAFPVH

Structure (SMILES)	IC50 [1]	IC50 (WM3928 cells)	IC50 (H2405 cells)	IC50 (Miapaca-2 cells)
Cc1ccc(NC(=O)c2ccnc(C(C)(C)C#N)c2)cc1-c1ccnc(-c2ccnc3c2CC(=O)N3)c1 [Example 23]	≤ 100 nM	≤ 100 nM	100 to 500 nM	1000 to 10000 nM
CNC(=O)c1cc(-c2cc(-c3cc(NC(=O)c4ccnc(C(F)(F)F)c4)ccc3C)cc(C3CC3)n2)ccn1 [Example 27]	≤ 100 nM	≤ 100 nM	≤ 100 nM	1000 to 10000 nM
CC(=O)Nc1cc(-c2cncc(-c3cc(NC(=O)c4ccnc(C(F)(F)F)c4)ccc3C)n2)ccn1 [Example 29]	≤ 100 nM	≤ 100 nM	≤ 100 nM	1000 to 10000 nM
CC(=O)Nc1cc(-c2cccc(-c3cc(NC(=O)c4ccnc(C(F)(F)F)c4)ccc3C)c2)ncn1 [Example 30]	≤ 100 nM	≤ 100 nM	≤ 100 nM	1000 to 10000 nM
Cc1ncc(NC(=O)c2cncc(C(F)F)c2)cc1-c1cccc(-c2cc(NC(=O)C3CC3)ncn2)c1 [Example 280]	≤ 100 nM	≤ 100 nM	100 to 500 nM	1000 to 10000 nM
Cc1ncc(NC(=O)c2cn(C(C)C)nn2)cc1-c1ccnc(-c2ccnc(NC(=O)C3CC3)c2)n1 [Example 281]	≤ 100 nM	1000 to 10000 nM	100 to 500 nM	1000 to 10000 nM
COC(=O)Nc1cc(-c2cccc(-c3cc(NC(=O)c4ccnc(C(C)(C)C#N)c4)cnc3C)c2)ccn1 [Example 282]	≤ 100 nM	100 to 500 nM	500 to 1000 nM	1000 to 10000 nM
Cc1ncc(NC(=O)c2cnn(C(C)(C)C)c2)cc1-c1ccnc(-c2ccnc(NC(=O)C3CC3)c2)n1 [Example 283]	≤ 100 nM	100 to 500 nM	100 to 500 nM	1000 to 10000 nM
Cc1ccc(NC(=O)c2cnnc(C3CC3)c2)cc1-c1cccc(-c2cc(NC(=O)C3CC3)ncn2)c1 [Example 284]	≤ 100 nM	≤ 100 nM	500 to 1000 nM	1000 to 10000 nM
Cc1nc(-c2ccnc(NC(=O)C3CC3)c2)cc(-c2cc(NC(=O)c3ccnc(C4(C#N)CC4)c3)cnc2C)n1 [Example 286]	≤ 100 nM	100 to 500 nM	100 to 500 nM	1000 to 10000 nM
Cc1nc(-c2ccnc(NC(=O)C3CC3)c2)cc(-c2cc(NC(=O)c3ccnc(C4CC4)c3)cnc2C)n1 [Example 287]	≤ 100 nM	100 to 500 nM	500 to 1000 nM	1000 to 10000 nM
COC(=O)Nc1cc(-c2cccc(-c3cc(NC(=O)c4ccnc(C5CC5)c4)cnc3C)c2)ccn1 [Example 288]	≤ 100 nM	1000 to 10000 nM	1000 to 10000 nM	1000 to 10000 nM
COC(=O)Nc1nccc(-c2cccc(-c3cc(NC(=O)c4ccnc(C(C)(C)C#N)c4)cnc3C)c2)n1 [Example 290]	≤ 100 nM	500 to 1000 nM	1000 to 10000 nM	1000 to 10000 nM
Cc1ncc(NC(=O)c2ccnc(C3CC3)c2)cc1-c1cccc(-c2cc(NC(=O)C3CC3)ncn2)c1 [Example 291]	≤ 100 nM	≤ 100 nM	100 to 500 nM	1000 to 10000 nM
Cc1ncc(NC(=O)c2ccnc(C3CC3)c2)cc1-c1nccc(-c2ccnc(NC(=O)C3CC3)c2)n1 [Example 295]	≤ 100 nM	100 to 500 nM	100 to 500 nM	1000 to 10000 nM
COC(=O)Nc1cc(-c2cc(-c3cc(NC(=O)c4ccnc(C(C)(C)C#N)c4)cnc3C)ccn2)ccn1 [Example 297]	≤ 100 nM	≤ 100 nM	≤ 100 nM	1000 to 10000 nM
Cc1cc(F)c(NC(=O)c2ccnc(C(C)(C)C#N)c2)cc1-c1cc(-c2ccnc(NC(=O)C3CC3)c2)cnn1 [Example 298]	≤ 100 nM	100 to 500 nM	100 to 500 nM	1000 to 10000 nM
COC(=O)Nc1cc(-c2cnnc(-c3cc(NC(=O)c4ccnc(C(C)(C)C#N)c4)c(F)cc3C)c2)ccn1 [Example 299]	≤ 100 nM	500 to 1000 nM	100 to 500 nM	1000 to 10000 nM
Cc1cc(F)c(NC(=O)c2ccnc(C(C)(C)F)c2)cc1-c1ccnc(-c2ccnc(NC(=O)C3CC3)c2)c1 [Example 300]	≤ 100 nM	≤ 100 nM	≤ 100 nM	1000 to 10000 nM
Cc1ncc(NC(=O)c2ccnc(C(C)(C)C#N)c2)cc1-c1cccc(-c2ccnc(C(N)=O)c2)c1 [Example 301]	≤ 100 nM	100 to 500 nM	100 to 500 nM	1000 to 10000 nM
COC(=O)Nc1cc(-c2nccc(-c3cc(NC(=O)c4ccnc(C(C)(C)F)c4)c(F)cc3C)n2)ccn1 [Example 304]	≤ 100 nM	≤ 100 nM	100 to 500 nM	1000 to 10000 nM
COC(=O)Nc1cc(-c2cnnc(-c3cc(NC(=O)c4ccnc(C(C)(C)C#N)c4)ccc3C)c2)ccn1 [Example 305]	≤ 100 nM	100 to 500 nM	100 to 500 nM	1000 to 10000 nM
Cc1cc(F)c(NC(=O)c2ccnc(C(F)F)c2)cc1-c1ccnc(-c2ccnc(NC(=O)C3CC3)c2)c1 [Example 307]	≤ 100 nM	100 to 500 nM	≤ 100 nM	1000 to 10000 nM
COC(=O)Nc1cc(-c2cc(-c3cc(NC(=O)c4ccnc(C(C)(C)C#N)c4)c(F)cc3C)ccn2)ccn1 [Example 308]	≤ 100 nM	≤ 100 nM	≤ 100 nM	1000 to 10000 nM
COC(=O)Nc1cc(-c2cc(-c3cc(NC(=O)c4ccnc(C(F)(F)F)c4)cnc3C)ccn2)ccn1 [Example 312]	500 to 1000 nM	1000 to 10000 nM	100 to 500 nM	1000 to 10000 nM
Cc1ncc(NC(=O)C2CCOC(C)(C)C2)cc1-c1cccc(-c2cc(NC(=O)C3CC3)ncn2)c1 (centres unmarked) [Example 348]	≤ 100 nM	1000 to 10000 nM	1000 to 10000 nM	1000 to 10000 nM
CNC(=O)c1cc(-c2cnnc(-c3cc(NC(=O)c4ccnc(C(F)(F)F)c4)ccc3C)c2)ccn1 [Example 364]	100 to 500 nM	1000 to 10000 nM	500 to 1000 nM	
Cc1ccc(NC(=O)C2CCOC(C(C)C)C2)cc1-c1cc(-c2ccnc(NC(=O)C3CC3)c2)cnn1 (centres unmarked) [Example 370]	≤ 100 nM	1000 to 10000 nM	500 to 1000 nM	
CNC(=O)c1cc(-c2cc(-c3cc(NC(=O)c4ccnc(C(C)(C)F)c4)ccc3C)cnc2C)ccn1 [Example 371]	≤ 100 nM	100 to 500 nM	100 to 500 nM	
